# Entries after “also recorded” stand apart in the source; their conditions may differ.
# Assays:
# H3N2 A/HongKong/8/68 = assay: Electrochemical assay, 3 electrode system: SG1 cleavage and drug susceptibility; format: biochemical, Influenza A virus
# [1] = system: N2 NA (strain A/Babol/36/2005); assay: as above; format: biochemical, influenza virus
# H3N2 A/Aichi/2/1968 = assay: as above; format: biochemical, Influenza A virus
# H1N1 A/Brisbane/59/2007 = assay: as above; format: biochemical, Influenza A virus
# [2] = system: membrane free soluble N1 NA (strain H5N1 A/Anhui/1/2005); format: biochemical, influenza virus
# [3] = system: A/California/07/2009 (H1N1); assay: Electrochemical assay using the printed electrodes; format: biochemical, Influenza A virus; conditions: 100 μL virus + 100 μL PBS buffer with SG1, 1 hour, 37° C.; 20 μL tested
# [4] = system: A/PuertoRico/8/1934 (H1N1); assay: Electrochemical assay using the printed electrodes; format: biochemical, Influenza A virus; conditions: 100 μL virus + 100 μL PBS buffer with SG1, 1 hour, 37° C.; 20 μL tested
# [5] = system: A/Uruguay/716/2007 (H3N2); assay: Electrochemical assay using the printed electrodes; format: biochemical, Influenza A virus; conditions: 100 μL virus + 100 μL PBS buffer with SG1, 1 hour, 37° C.; 20 μL tested
# [6] = system: A/Nanching/933/1995 (H3N2); assay: Electrochemical assay using the printed electrodes; format: biochemical, Influenza A virus; conditions: 100 μL virus + 100 μL PBS buffer with SG1, 1 hour, 37° C.; 20 μL tested
# [7] = system: A/New Caledonia/20/1999 (H1N1); assay: Electrochemical assay using the printed electrodes; format: biochemical, Influenza A virus
# A/Sydney/5/1997 (H3N2) = assay: Electrochemical assay using the printed electrodes; format: biochemical, Influenza A virus; conditions: 100 μL virus + 100 μL PBS buffer with SG1, 1 hour, 37° C.; 20 μL tested
# A/HongKong/8/1968 (H3N2) = assay: Electrochemical assay using the printed electrodes; format: biochemical, Influenza A virus; conditions: 100 μL virus + 100 μL PBS buffer with SG1, 1 hour, 37° C.; 20 μL tested
# A/Aichi/2/1968 (H1N1) = assay: Electrochemical assay using the printed electrodes; format: biochemical, Influenza A virus
# [8] = system: A/Victoria/361/2011 (H3N2); assay: Electrochemical assay using the printed electrodes; format: biochemical, Influenza A virus; conditions: 100 μL virus + 100 μL PBS buffer with SG1, 1 hour, 37° C.; 20 μL tested
# [9] = system: A/Brisbane/59/2007 (H1N1); assay: Electrochemical assay using the printed electrodes; format: biochemical, Influenza A virus; conditions: 100 μL virus + 100 μL PBS buffer with SG1, 1 hour, 37° C.; 20 μL tested
# [10] = system: A/Wisconsin/15/2009 (H3N2); assay: Electrochemical assay using the printed electrodes; format: biochemical, Influenza A virus; conditions: 100 μL virus + 100 μL PBS buffer with SG1, 1 hour, 37° C.; 20 μL tested
# [11] = Electrochemical assay, 3 electrode system: SG1 in PBS buffer without enzyme; conditions: SG1 0.5 mM in PBS buffer, no NA or virus
# [12] = system: A/Beijing/262/1995 (H1N1); assay: Electrochemical assay using the printed electrodes; format: biochemical, Influenza A virus; conditions: 100 μL virus + 100 μL PBS buffer with SG1, 1 hour, 37° C.; 20 μL tested
# [13] = system: A/San Diego/1/2009 (H1N1); assay: Electrochemical assay using the printed electrodes; format: biochemical, Influenza A virus; conditions: 100 μL virus + 100 μL PBS buffer with SG1, 1 hour, 37° C.; 20 μL tested
# [14] = system: A/Wilson-Smith/1933 (H1N1); assay: Electrochemical assay using the printed electrodes; format: biochemical, Influenza A virus; conditions: 100 μL virus + 100 μL PBS buffer with SG1, 1 hour, 37° C.; 20 μL tested
# [15] = system: bacterial NA (BNA) from Clostridium perfringens; format: biochemical; conditions: bacterial NA, no antiviral
# [16] = system: A/Brownsville/31H/2009 (H1N1); assay: Electrochemical assay using the printed electrodes; format: biochemical, Influenza A virus; conditions: 100 μL virus + 100 μL PBS buffer with SG1, 1 hour, 37° C.; 20 μL tested
# [17] = system: A/Wisconsin/629-D02452/2009 (H1N1); assay: Electrochemical assay using the printed electrodes; format: biochemical, Influenza A virus; conditions: 100 μL virus + 100 μL PBS buffer with SG1, 1 hour, 37° C.; 20 μL tested
# [18] = system: A/Solomon Islands/3/2006 (H1N1); assay: Electrochemical assay using the printed electrodes; format: biochemical, Influenza A virus; conditions: 100 μL virus + 100 μL PBS buffer with SG1, 1 hour, 37° C.; 20 μL tested
# [19] = system: A/New York/18/2009 (H1N1); assay: Electrochemical assay using the printed electrodes; format: biochemical, Influenza A virus; conditions: 100 μL virus + 100 μL PBS buffer with SG1, 1 hour, 37° C.; 20 μL tested
# [20] = Electrochemical assay using the printed electrodes, SG1 without virus; conditions: No virus + SG1 (negative control)
# β-Galactosidase = conditions: substrate incubated with β-Galactosidase
# α-Mannosidase = format: biochemical; conditions: substrate incubated with α-Mannosidase
# β-Glucuronidase = conditions: substrate incubated with β-Glucuronidase
# α-L-Fucosidase = format: biochemical; conditions: substrate incubated with α-L-Fucosidase
# [21] = 10 ng antiviral premixed 30 min before SG1
# [22] = 100 μL UV inactivated virus, 1 hour
# [23] = 0.5 mM SG1, compared with one hour for most strains
# [24] = 100 μL virus + 100 μL PBS buffer with SG1, 1 hour, 37° C., 20 μL tested
# [25] = SG1 0.5 mM, 2 hours, 23° C., PBS buffer
compound,measurement,setting,value
CCOC(=O)C1=C[C@@H](OC(CC)CC)[C@H](NC(C)=O)[C@@H](N)C1 [Oseltamivir],inhibition of NA (glucose release from SG1) by antiviral,H3N2 A/HongKong/8/68; [21],completely inhibited; also recorded: Glucose was not released
same,inhibition of NA (glucose release from SG1) by antiviral,[1]; [21],completely inhibited
same,inhibition of NA (glucose release from SG1) by antiviral,H3N2 A/Aichi/2/1968; [21],completely inhibited; also recorded: Glucose was not released
same,inhibition of NA (glucose release from SG1) by antiviral,H1N1 A/Brisbane/59/2007; [21],completely inhibited; also recorded: Glucose was not released
same,inhibition of NA (glucose release from SG1) by antiviral,[2]; [21],completely inhibited
"CC(=O)N[C@H]1[C@H]([C@H](O)[C@H](O)CO)O[C@@](OC[C@H]2OC(O)[C@H](O)[C@@H](O)[C@@H]2O)(C(=O)O)C[C@@H]1O (stereo partly drawn) [SG1, 5-acetamido-3,5-dideoxy-D-glycero-α-D-galacto-non-2-ulopyranosylonate-(2→6)-α,β-D-gluco pyranoside]",Electrochemical assay (current),[3],13.4 + 1.5 ×10^−8 A
same,Electrochemical assay (current),[4],13.4 ± 2.0 ×10^−8 A
same,Electrochemical assay (current),[5],132.4 ± 6.3 ×10^−8 A
same,cleavage of SG1 / glucose release,H3N2 A/HongKong/8/68; [22],"cleave SG1, releasing glucose; also recorded: Glucose was released"
same,Electrochemical assay (current),[6],15.1 + 2.8 ×10^−8 A
same,time to completely cleave SG1,[7]; [23],require longer time to completely cleave SG1
same,Electrochemical assay (current),[7]; [24],17.7 ± 2.6 ×10^−8 A
same,Electrochemical assay (current),A/Sydney/5/1997 (H3N2),115.7 ± 4.3 ×10^−8 A
same,Electrochemical assay (current),A/HongKong/8/1968 (H3N2),64.4 ± 5.2 ×10^−8 A
same,time to completely cleave SG1,A/Aichi/2/1968 (H1N1); [23],require longer time to completely cleave SG1
same,Electrochemical assay (current),A/Aichi/2/1968 (H1N1); [24],31.3 ± 5.3 ×10^−8 A
same,Electrochemical assay (current),[8],94.5 ± 2.3 ×10^−8 A
same,Electrochemical assay (current),[9],106.2 ± 5.1 ×10^−8 A
same,Electrochemical assay (current),[10],107.8 ± 5.9 ×10^−8 A
same,cleavage of SG1 / glucose release,[1]; [25],complete cleavage; also recorded: Glucose was released
same,glucose release in the absence of enzymes,[11],no glucose released
same,cleavage of SG1 / glucose release,H3N2 A/Aichi/2/1968; [22],"cleave SG1, releasing glucose; also recorded: Glucose was released"
same,Electrochemical assay (current),[12],118.1 ± 11.6 ×10^−8 A
same,Electrochemical assay (current),[13],108.5 ± 12.0 ×10^−8 A
same,matrix effect on cleavage of SG1,H1N1 A/Brisbane/59/2007,does not affect the cleavage
same,cleavage of SG1 / glucose release,H1N1 A/Brisbane/59/2007; [22],"cleave SG1, releasing glucose; also recorded: Glucose was released"
same,Electrochemical assay (current),[14],99.5 ± 4.4 ×10^−8 A
same,cleavage of SG1 / glucose release,[15],cleaves SG1 to release glucose
same,cleavage of SG1 / glucose release,[2]; [25],complete cleavage; also recorded: Glucose was released
same,Electrochemical assay (current),[16],91.7 ± 9.7 ×10^−8 A
same,Electrochemical assay (current),[17],98.9 ± 5.7 ×10^−8 A
same,Electrochemical assay (current),[18],79.7 ± 5.0 ×10^−8 A
same,Electrochemical assay (current),[19],74.4 ± 5.6 ×10^−8 A
same,Electrochemical assay (current),[20],3.6 ± 2.2 ×10^−8 A
OCC1O[C@@H](OCc2ccc(O[C@H]3OC(CO)[C@@H](O)[C@H](O)C3O)cc2)C(O)[C@@H](O)[C@@H]1O (some centres unmarked) [Substrate 20],"i, value of electrochemical assay",β-Galactosidase,10.2 ± 0.6 10^−8 A
same,"i, value of electrochemical assay",α-Mannosidase,81.0 ± 1.8 10^−8 A
OCC1O[C@@H](OCc2ccc(O[C@@H]3OC(CO)[C@H](O)[C@H](O)C3O)cc2)C(O)[C@@H](O)[C@@H]1O (some centres unmarked) [Substrate 21],"i, value of electrochemical assay",β-Galactosidase,77.9 ± 7.3 10^−8 A
same,"i, value of electrochemical assay",β-Glucuronidase,10.4 ± 1.3 10^−8 A
"O=C(O)C1O[C@@H](Oc2ccc(CO[C@@H]3OC(CO)[C@@H](O)[C@H](O)C3O)cc2)C(O)[C@@H](O)[C@@H]1O (stereo partly drawn) [Substrate 22, 1-(4-Hydroxymethylphenyl)-β-D-glucopyronuronic acid-1-α/β-D-glucopyranoside]","i, value of electrochemical assay",β-Glucuronidase,65.1 ± 4.6 10^−8 A
same,"i, value of electrochemical assay",α-L-Fucosidase,9.7 ± 3.5 10^−8 A
same,"i, value of electrochemical assay",α-Mannosidase,12.3 ± 1.2 10^−8 A

# — patent US10408783B2, “Electrochemical methods and compounds for the detection of enzymes” (GEORGIA STATE UNIVERSITY RESEARCH FOUNDATION, INC., priority 2014, dated 2019)
